The text below walks through data of ChEMBL document CHEMBL3120110, “Design, synthesis, biological evaluation, and comparative docking study of 1,2,4-triazolones as CB1 receptor selective antagonists” (Eur J Med Chem, 2014).

pIC50: −log10 of the molar value.

Assay [1] has as its target T1, Cannabinoid receptor 2 (Homo sapiens, UniProt P34972). Description: Antagonist activity at CB2 receptor (unknown origin) stably expressed in CHO cells co-expressing co-expressing Ga15/16 assessed as calcium current at 10 uM after 45 mins by fluo-4 AM assay relative to basal control. The format is functional, cell-based.
The target in assay [2] is T2, Cannabinoid receptor 1 (Homo sapiens, UniProt P21554). The format is functional, cell-based, CHO.
T2 sequence (P21554 whole entry): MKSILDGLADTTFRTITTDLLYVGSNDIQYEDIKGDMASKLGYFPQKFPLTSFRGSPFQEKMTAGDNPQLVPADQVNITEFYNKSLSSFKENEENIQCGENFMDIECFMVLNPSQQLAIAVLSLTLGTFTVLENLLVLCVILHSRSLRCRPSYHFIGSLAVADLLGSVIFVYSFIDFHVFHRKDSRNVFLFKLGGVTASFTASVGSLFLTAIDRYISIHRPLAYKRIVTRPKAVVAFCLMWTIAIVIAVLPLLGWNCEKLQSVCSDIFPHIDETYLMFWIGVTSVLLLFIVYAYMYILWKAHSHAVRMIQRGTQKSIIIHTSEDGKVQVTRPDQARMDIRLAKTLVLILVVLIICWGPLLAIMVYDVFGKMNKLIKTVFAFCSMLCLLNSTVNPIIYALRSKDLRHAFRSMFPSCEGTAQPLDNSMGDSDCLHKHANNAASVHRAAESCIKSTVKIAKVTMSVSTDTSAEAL
Assay [3] addresses T2, Cannabinoid receptor 1. The conditions noted are these: CHO, at 10 µM.
Assay [4] deals with T1, Cannabinoid receptor 2. Description: Antagonist activity at CB2 receptor (unknown origin) stably expressed in CHO cells co-expressing co-expressing Ga15/16 assessed as calcium current after 45 mins by fluo-4 AM assay. The assay is classed as functional, cell-based.

T1 sequence (P34972 whole entry): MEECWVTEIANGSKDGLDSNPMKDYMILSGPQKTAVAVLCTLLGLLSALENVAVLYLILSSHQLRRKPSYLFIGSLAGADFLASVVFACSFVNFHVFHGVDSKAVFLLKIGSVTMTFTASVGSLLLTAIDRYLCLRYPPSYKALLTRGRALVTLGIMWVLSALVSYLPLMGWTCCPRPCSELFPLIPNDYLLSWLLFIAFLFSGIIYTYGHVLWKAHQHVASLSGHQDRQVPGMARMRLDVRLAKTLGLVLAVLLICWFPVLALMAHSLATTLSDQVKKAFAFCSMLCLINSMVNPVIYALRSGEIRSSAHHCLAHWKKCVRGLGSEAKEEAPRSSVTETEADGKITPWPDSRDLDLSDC

A word on the inhibition: it is the change of the read-out against control, counted positive when it falls. For orientation: pIC50 means the negative decadic logarithm of the IC50, by convention in mol/L. `COc1ccc(-c2nn(C(=O)Nc3ccc(Cl)cc3)c(=O)n2-c2ccc(C)cc2)cc1`: the inhibition was 43.6% at Cannabinoid receptor 2 [1] and 90.5% on Cannabinoid receptor 1 [3]. The pIC50 on Cannabinoid receptor 1 [2] was 5.33.
For `Cc1ccc(Cn2c(-c3ccc(C)cc3)nn(C(=O)Nc3ccc(Cl)cc3)c2=O)cc1`, in that order: 29.9%, 89% and 5.43.
For `COc1ccc(-c2nn(C(=O)Nc3ccc(C)cc3)c(=O)n2-c2ccc(Cl)cc2)cc1`, in that order: 74%, 96.6% and 5.64.
Regarding `COc1ccc(-c2nn(C(=O)NC3CCCCC3)c(=O)n2-c2ccc(C)cc2)cc1`, the pIC50 on Cannabinoid receptor 2 [4] is 5.39; on Cannabinoid receptor 1 [2], 5.74. Besides, the inhibition at Cannabinoid receptor 2 [1] is 131%; against Cannabinoid receptor 1 [3], 98%.
Turning to `Cc1ccc(Cn2c(-c3ccc(Cl)cc3)nn(C(=O)NC3CCCCC3)c2=O)cc1`, the pIC50 at Cannabinoid receptor 2 [4] was 5.71. Besides, the inhibition on Cannabinoid receptor 2 [1] worked out at 87.7%; on Cannabinoid receptor 1 [3] it was 42.6%.
Turning to `CCCCCOc1c(OC)ccc2cc(C(=O)NCc3ccc4c(c3)OCO4)c(=O)[nH]c12`, the inhibition at Cannabinoid receptor 2 [1] was determined as 130%; against Cannabinoid receptor 1 [3], 37.6%.
`Cc1ccc(Cn2c(-c3ccc(Cl)cc3)nn(C(=O)Nc3ccc(C)cc3)c2=O)cc1`: the inhibition against Cannabinoid receptor 1 [3] was 36.8%.
In the case of `Cc1ccc(NC(=O)n2nc(-c3ccc(C)cc3)n(-c3ccc(Cl)cc3)c2=O)cc1`, the pIC50 at Cannabinoid receptor 1 [2] was 6.02. The inhibition against Cannabinoid receptor 1 [3] was 91.9%.
Turning to `Cc1ccc(Cn2c(-c3ccc(C)cc3)nn(C(=O)NC3CCCCC3)c2=O)cc1`, the negative logarithm of the IC50 (pIC50) on Cannabinoid receptor 2 [4] was 5.30; on Cannabinoid receptor 1 [2] it was 4.75. Moreover, the inhibition was found to be 132% on Cannabinoid receptor 2 [1] and 60.9% at Cannabinoid receptor 1 [3].
As to `Cc1ccc(-c2nn(C(=O)NC3CCCCC3)c(=O)n2-c2ccc(Cl)cc2)cc1`, the inhibition at Cannabinoid receptor 2 [1] amounted to 58.5%; at Cannabinoid receptor 1 [3], 98.2%. The molecule further gave a negative logarithm of the IC50 (pIC50) against Cannabinoid receptor 1 [2] of 5.68.
As to `COc1ccc(-n2c(-c3ccc(Cl)cc3)nn(C(=O)Nc3ccc(C)cc3)c2=O)cc1`, the pIC50 at Cannabinoid receptor 2 [4] was 4.70; against Cannabinoid receptor 1 [2], 5.07. The inhibition at Cannabinoid receptor 2 [1] was 85.6%; against Cannabinoid receptor 1 [3], 74.6%.
For `COc1ccc(-c2nn(C(=O)NC3CCCCC3)c(=O)n2-c2ccc(Cl)cc2)cc1`, in that order: 5.22, 6.06, 124% and 96.5%.
For the molecule `Cc1ccc(-n2c(-c3ccc(Cl)cc3)nn(C(=O)NC3CCCCC3)c2=O)cc1`, the inhibition on Cannabinoid receptor 2 [1] was determined as 46.4%; against Cannabinoid receptor 1 [3] it was 102%. Besides, the pIC50 against Cannabinoid receptor 1 [2] was 6.65.
As to `COc1ccc(-n2c(-c3ccc(Cl)cc3)nn(C(=O)NC3CCCCC3)c2=O)cc1`, the pIC50 at Cannabinoid receptor 2 [4] is 5.82; against Cannabinoid receptor 1 [2], 6.41. The inhibition was 94% at Cannabinoid receptor 2 [1] and 98.6% at Cannabinoid receptor 1 [3].
